In ChEMBL document CHEMBL1201862, “PubChem BioAssay data set” (2004):
Each block holds one molecule with its values, some of them ahead of it. Activity calls are given as the source filed them.

Assays:
[1] = molecular target: T1, Sentrin-specific protease 7 (Homo sapiens, UniProt Q9BQF6); experiment: inhibition of human SENP7 cleavage activity – biochemical, luminescence, SAR follow-up (AID 504497); format: functional
T1 sequence (Q9BQF6 whole entry): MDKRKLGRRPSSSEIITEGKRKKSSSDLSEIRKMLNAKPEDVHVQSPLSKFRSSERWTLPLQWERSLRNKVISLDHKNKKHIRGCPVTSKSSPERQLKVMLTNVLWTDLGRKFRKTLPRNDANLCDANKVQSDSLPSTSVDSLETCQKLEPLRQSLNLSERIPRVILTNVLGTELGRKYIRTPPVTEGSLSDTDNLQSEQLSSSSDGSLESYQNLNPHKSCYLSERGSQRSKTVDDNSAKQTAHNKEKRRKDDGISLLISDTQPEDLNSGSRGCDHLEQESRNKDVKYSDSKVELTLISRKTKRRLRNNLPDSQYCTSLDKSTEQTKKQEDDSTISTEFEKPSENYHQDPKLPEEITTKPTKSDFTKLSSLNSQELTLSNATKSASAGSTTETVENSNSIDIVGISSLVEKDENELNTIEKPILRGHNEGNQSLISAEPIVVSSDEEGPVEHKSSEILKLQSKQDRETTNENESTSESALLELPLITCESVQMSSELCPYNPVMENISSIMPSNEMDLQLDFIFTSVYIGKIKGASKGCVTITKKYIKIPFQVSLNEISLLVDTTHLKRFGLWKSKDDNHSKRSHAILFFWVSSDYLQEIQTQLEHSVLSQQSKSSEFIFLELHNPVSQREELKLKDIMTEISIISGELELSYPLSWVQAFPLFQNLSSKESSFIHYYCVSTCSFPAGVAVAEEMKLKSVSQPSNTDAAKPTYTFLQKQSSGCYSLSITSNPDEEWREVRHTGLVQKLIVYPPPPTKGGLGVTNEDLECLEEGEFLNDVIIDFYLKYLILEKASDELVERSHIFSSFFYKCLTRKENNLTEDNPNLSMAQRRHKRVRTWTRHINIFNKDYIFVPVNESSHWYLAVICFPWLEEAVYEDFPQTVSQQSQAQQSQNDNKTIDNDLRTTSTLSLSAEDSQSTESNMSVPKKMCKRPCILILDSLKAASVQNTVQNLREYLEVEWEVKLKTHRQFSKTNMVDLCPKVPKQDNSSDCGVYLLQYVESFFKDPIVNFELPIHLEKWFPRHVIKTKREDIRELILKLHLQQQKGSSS

Caspase-3 [2] = molecular target: T2, Caspase-3 (Homo sapiens, UniProt P42574); experiment: SAR Analysis of small molecule inhibitors of Sentrin-specific proteases (SENPs) using a Caspase-3 Selectivity assay. [Related pubchem assays (depositor defined):AID2540, AID2599, AID434973, AID489001]; format: functional
T2 sequence (P42574 whole entry): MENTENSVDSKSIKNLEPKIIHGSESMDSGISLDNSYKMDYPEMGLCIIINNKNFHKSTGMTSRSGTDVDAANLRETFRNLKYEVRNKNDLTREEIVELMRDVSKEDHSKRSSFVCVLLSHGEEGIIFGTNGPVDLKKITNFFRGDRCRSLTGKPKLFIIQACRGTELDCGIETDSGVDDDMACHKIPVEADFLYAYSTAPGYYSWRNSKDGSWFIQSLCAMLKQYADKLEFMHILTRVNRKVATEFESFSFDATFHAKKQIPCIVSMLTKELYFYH

Caspase-3 [3] = molecular target: T2, Caspase-3; experiment: inhibition of recombinant caspase-3 activity – biochemical, luminescence, set 2, selectivity assay for SENP protease inhibitor project, SAR follow-up (AID 588599); format: functional
[4] = molecular target: T3, Sentrin-specific protease 6 (Homo sapiens, UniProt Q9GZR1); experiment: SAR Analysis of small molecule inhibitors of Sentrin-specific protease 6 (SENP6) using a Luminescent assay. [Related pubchem assays (depositor defined):AID2582, AID2599]; format: functional
T3 sequence (Q9GZR1 whole entry): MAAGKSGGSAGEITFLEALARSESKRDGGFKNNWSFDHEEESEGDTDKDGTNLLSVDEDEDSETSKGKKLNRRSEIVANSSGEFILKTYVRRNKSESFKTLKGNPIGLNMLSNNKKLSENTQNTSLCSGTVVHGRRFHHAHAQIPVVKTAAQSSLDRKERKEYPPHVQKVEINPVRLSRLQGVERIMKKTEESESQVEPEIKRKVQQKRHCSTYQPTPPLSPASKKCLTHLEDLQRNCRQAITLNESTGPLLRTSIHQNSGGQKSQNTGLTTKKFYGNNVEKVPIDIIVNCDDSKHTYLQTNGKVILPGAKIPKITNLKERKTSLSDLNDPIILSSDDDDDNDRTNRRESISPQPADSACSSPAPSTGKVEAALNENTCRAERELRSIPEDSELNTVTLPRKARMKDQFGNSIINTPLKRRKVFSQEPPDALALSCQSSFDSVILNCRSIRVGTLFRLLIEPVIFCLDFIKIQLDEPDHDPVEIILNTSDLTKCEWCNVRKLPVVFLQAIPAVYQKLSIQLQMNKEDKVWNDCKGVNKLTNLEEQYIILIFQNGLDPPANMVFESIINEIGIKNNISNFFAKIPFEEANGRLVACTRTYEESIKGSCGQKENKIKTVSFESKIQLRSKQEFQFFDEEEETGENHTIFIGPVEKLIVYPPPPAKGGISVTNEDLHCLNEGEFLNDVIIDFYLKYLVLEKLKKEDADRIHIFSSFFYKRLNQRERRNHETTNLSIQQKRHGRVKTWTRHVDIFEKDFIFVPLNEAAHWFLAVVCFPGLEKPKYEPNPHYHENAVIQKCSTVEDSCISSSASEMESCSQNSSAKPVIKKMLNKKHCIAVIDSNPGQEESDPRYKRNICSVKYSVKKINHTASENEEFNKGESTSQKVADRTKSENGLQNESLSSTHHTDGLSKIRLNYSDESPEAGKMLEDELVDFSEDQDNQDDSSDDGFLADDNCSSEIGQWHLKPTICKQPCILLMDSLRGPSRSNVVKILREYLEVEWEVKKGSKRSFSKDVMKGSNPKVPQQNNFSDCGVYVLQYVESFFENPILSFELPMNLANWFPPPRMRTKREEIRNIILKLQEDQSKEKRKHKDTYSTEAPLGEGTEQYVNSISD

[5] = molecular target: T3, Sentrin-specific protease 6; experiment: inhibition of human SENP6 catalytic domain – biochemical, luminescence, set 2, SAR follow-up (AID 588598); format: functional
[6] = molecular target: T4, Sentrin-specific protease 8 (Homo sapiens, UniProt Q96LD8); experiment: inhibition of sentrin protease 8 – biochemical, luminescence, set 2, SAR follow-up (AID 588601); format: functional
T4 sequence (Q96LD8 whole entry): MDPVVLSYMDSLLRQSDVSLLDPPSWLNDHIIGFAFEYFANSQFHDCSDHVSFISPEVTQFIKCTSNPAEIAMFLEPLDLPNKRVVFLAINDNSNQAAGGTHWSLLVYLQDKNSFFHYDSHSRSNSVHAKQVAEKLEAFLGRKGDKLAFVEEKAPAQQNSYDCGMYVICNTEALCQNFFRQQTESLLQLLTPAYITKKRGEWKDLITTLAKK

[7] = molecular target: T4, Sentrin-specific protease 8; experiment: inhibition of human SENP8 cleavage activity – biochemical, luminescence, SAR follow-up (AID 504501); format: functional
[8] = molecular target: T1, Sentrin-specific protease 7; experiment: inhibition of human SENP7 cleavage activity – biochemical, luminescence, set 2, SAR follow-up (AID 588600); format: functional
HEK293 [9] = experiment: membrane integrity loss in HEK cells – cell-based, fluorescence, cytotoxicity control for IDE activator project, dose response (AID 588440); format: functional; details: Homo sapiens;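 also: cytotoxicity by LDH release measuring loss of membrane integrity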
[10] = bead-based luminescence quenchers, dual-tagged ARNT – biochemical, AlphaScreen, cherry-pick, artefact control for ARNT-TACC3 interaction inhibitor project, dose response (AID 651705); format: functional;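 also: AlphaScreen bead proximity signal that flags compounds interfering with the detection technology; potency reflects signal decrease which marks the compound as an assay artifact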
Insulin-degrading enzyme [11] = molecular target: T5, Insulin-degrading enzyme (Homo sapiens, UniProt P14735); experiment: cellular IDE activation of Abeta substrate cleavage – fluorescence polarization, HEK cells, dose response (AID 588439); format: functional, cell-based
BJ [12] = experiment: BJ-TERT fibroblast viability loss – cell-based, RAS-independent, luminescence, dose response (AID 1933); format: functional; details: Homo sapiens
BJ [13] = experiment: BJ-TERT-LT-ST fibroblast viability loss – cell-based, RAS-independent, luminescence, dose response (AID 1935); format: functional; details: Homo sapiens;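 also: BJ fibroblasts immortalized with TERT plus LT and ST oncogenes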
BJ [14] = experiment: cells; format: functional, cell-based; details: Homo sapiens
Insulin-degrading enzyme [15] = molecular target: T5, Insulin-degrading enzyme; experiment: recombinant IDE activation, cell-free – biochemical, fluorescence polarization, counter-screen for IDE activator project, dose response (AID 588681)
HEK293 [16] = experiment: optical interference in Abeta FP readout, dose response, artefact control for IDE activator project, biochemical, fluorescence polarization (AID 588442); format: functional, cell-based; details: Homo sapiens
[17] = DRD fibroblast viability loss – cell-based, non-viral oncogenic, luminescence, dose response (AID 1934); format: functional; details: Homo sapiens
[18] = molecular target: DNA dC->dU-editing enzyme APOBEC-3G (Homo sapiens, UniProt Q9HC16); experiment: inhibition of APOBEC3G ssDNA deamination – biochemical, fluorescence, single-stranded DNA substrate, SAR follow-up (AID 602136); format: functional; details: read-out: IC50_Mean
[19] = molecular target: DNA dC->dU-editing enzyme APOBEC-3A (Homo sapiens, UniProt P31941); experiment: SAR analysis of small molecule inhibitors of APOBEC3A DNA Deaminase via a fluorescence-based single-stranded DNA deaminase assay.; format: functional; details: read-out: IC50_Mean
Sequence of DNA dC->dU-editing enzyme APOBEC-3A (P31941 whole entry): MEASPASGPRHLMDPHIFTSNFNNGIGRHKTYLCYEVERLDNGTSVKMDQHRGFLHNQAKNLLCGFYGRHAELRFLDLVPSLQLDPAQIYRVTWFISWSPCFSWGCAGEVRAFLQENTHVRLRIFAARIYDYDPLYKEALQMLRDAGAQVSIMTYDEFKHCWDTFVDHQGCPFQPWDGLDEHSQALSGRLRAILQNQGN

T5 sequence (P14735 whole entry): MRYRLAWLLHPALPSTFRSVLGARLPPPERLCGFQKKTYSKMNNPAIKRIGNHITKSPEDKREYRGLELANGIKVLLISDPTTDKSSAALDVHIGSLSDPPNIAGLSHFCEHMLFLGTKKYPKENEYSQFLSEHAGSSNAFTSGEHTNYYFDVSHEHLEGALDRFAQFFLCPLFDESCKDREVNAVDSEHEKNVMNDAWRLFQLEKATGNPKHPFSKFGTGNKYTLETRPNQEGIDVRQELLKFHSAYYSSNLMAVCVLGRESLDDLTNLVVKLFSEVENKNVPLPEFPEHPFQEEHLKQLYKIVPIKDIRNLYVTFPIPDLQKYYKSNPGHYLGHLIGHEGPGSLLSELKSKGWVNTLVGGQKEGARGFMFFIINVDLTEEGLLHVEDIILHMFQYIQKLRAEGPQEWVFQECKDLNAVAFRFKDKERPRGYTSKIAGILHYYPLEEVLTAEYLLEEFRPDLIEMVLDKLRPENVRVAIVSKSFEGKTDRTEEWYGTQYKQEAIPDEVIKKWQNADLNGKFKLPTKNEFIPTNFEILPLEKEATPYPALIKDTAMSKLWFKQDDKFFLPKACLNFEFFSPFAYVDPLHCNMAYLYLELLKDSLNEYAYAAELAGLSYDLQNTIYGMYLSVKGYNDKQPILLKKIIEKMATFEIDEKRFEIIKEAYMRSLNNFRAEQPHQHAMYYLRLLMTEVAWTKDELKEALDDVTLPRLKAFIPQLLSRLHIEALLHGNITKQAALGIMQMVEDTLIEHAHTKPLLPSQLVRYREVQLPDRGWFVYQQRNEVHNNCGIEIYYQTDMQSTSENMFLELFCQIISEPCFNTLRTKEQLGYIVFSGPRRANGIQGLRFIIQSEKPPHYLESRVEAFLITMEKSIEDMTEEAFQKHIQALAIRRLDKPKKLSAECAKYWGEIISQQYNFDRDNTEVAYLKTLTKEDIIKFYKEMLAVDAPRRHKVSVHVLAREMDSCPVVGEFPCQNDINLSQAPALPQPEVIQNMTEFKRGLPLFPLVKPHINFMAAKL
Sequence of DNA dC->dU-editing enzyme APOBEC-3G (Q9HC16 whole entry): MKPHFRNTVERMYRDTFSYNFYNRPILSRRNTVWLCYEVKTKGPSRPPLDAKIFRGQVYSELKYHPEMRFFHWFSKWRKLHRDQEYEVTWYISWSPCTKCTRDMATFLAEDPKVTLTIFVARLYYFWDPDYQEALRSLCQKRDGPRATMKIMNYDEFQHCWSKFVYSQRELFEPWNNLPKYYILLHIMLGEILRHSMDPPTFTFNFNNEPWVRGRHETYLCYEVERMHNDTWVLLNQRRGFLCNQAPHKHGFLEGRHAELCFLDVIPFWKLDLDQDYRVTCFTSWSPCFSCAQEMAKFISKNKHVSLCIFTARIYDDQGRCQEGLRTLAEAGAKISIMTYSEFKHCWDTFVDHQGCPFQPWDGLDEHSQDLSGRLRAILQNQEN

- IC50 [1]: 6.4 µM (active)
- IC50 (Caspase-3 [2]): 51 µM (active)
- IC50 (Caspase-3 [3]): 68.4 µM (active)
- IC50 [4]: > 99 µM (inactive)
- IC50 [5]: 8.58 µM (active)
- IC50 [8]: 29.4 µM (active)
SMILES: CCCCc1ccc2nc(NC(=O)c3cc(C)cs3)sc2c1
- IC50 [6]: 8.25 µM (active)
- IC50 [7]: > 99 µM (inactive)

SMILES: CCN(CC)c1ccc(/C=N/N=C(N)N)c(O)c1
- IC50 (HEK293 [9]): > 89.2 µM (inactive)
- AC50 [10]: 115 µM (active)
- EC50 (Insulin-degrading enzyme [11]): > 54.7 µM (inactive)
- EC50 (BJ [12]): 1.47 µM (active)
- EC50 (BJ [13]): 1.51 µM (inconclusive)
- EC50 (BJ [14]): 2.16 µM (active)
- EC50 (Insulin-degrading enzyme [15]): > 54.7 µM (inactive)
- EC50 (HEK293 [16]): > 54.7 µM (inactive)
- EC50 [17]: 1.19 µM (active)

SMILES: Fc1ccc(Nc2nc(Nc3ccc(Cl)c(Cl)c3)nc(N3CCOCC3)n2)cc1
- IC50 [18]: > 99 µM (inactive)
- IC50 [19]: > 99 µM (inactive)
